Experiments:
Format in all cases: physicochemical
[1] = Reduction-induced cleavage with 100 equivalents of DTT, HPLC/MS; details: 100 equiv DTT, DMSO/aqueous buffer pH 7.0, 37° C., argon
Description: The experiment comprised incubation of Compound B with 100 equivalents of the reducing agent DTT (0.1 mL of 2 M solution), 1.0 mL DMSO in aqueous buffer (pH=7.0), at 37° C. under argon atmosphere. Three sets of samples were analyzed by HPLC/MS: at 1 hour, 6 hours, and at 24 hours. […] This structure was thereafter maintained throughout the experiment.
Importantly however, HPLC/MS also indicated the formation of Compound B3, indicating cleavage of Compound B2, at the carbamate bond, with release of the phenolic moiety, Compound B3:
There was evidence for such cleavage, with release of Compound B3, already at one hour of incubation, where 30% cleavage was detected. This increased to 90% of cleaved product at 6 hours, and full cleavage by 24 hours.

[2] = Reduction-induced cleavage with excess dithiothreitol (15 equiv), HPLC/MS; details: 15 equiv DTT, DMSO/phosphate buffer pH 7, 37° C., argon
Description: Dithiothreitol (DTT) is a reducing agent; once oxidized, it forms a stable six-membered ring, with an internal disulfide bond. Disulfide compound A was treated with excess dithiothreitol (15 equiv, aq. 0.5M, pH adjusted to 7 with phosphate buffer solution) in DMSO and phosphate buffer solution (pH 7) at 37° C. under an argon atmosphere. Two sets of samples were analyzed by HPLC/MS: at 6 and at 24 hours.
As expected, the peak at 24 hours was of larger amplitude (70% vs. 30%).

[3] = Stability of Compound 5 in DMSO solution (non-reductive environment), HPLC-MS; details: room temperature, 24 hours, no reducing agent
Description: (§1) A DMSO solution of Compound 5 was incubated at room temperature for 24 hours. […] The Compound was then incubated at room temperature with one equivalent of the reducing agent tris (2-carboxyethyl) phosphine (TCEP). […] Intact Compound 5; (ii). a product corresponding to Compound 5 with two reduced thiol groups (Product 1); (iii). a product corresponding to cleaved Fragment A; and (iv). a product corresponding to cleaved Fragment B.
(§2) However, in reductive conditions, conversion of the disulfide into free thiol groups takes place. Importantly, this step is evidently followed by an intramolecular reaction, with molecular cleavage at the carbamate moiety, conceivably related to nucleophilic attack on the respective carbonyl by a thiol or a thiolate group, conveniently located at the sixth atom position. Therefore, the Compound manifests selective reduction-dependent cleavage. The site of the nucleophilic attack is described in the following Scheme 4: […]

[4] = Reduction-induced cleavage with one equivalent of TCEP, HPLC-MS; details: room temperature, 18 hours
Description: as §1, §2

## C[C@]12CC[C@@H]3c4cc(F)c(OC(=O)N(CCCO)C5CCSSC5)cc4CC[C@H]3[C@@H]1CC[C@@H]2OCCCOC(C(F)(F)F)(C(F)(F)F)C(F)(F)F (stereo partly drawn) [Compound B]
[1]; 6 hours
  cleavage with release of Compound B3: 90%
[1]; 24 hours
  cleavage with release of Compound B3: full cleavage
[1]; one hour
  cleavage with release of Compound B3: 30%
  reduction of the disulphide bond (conversion of Compound B to Compound B2): full conversion

## CCCCCCN(C(=O)Oc1ccccc1)[C@H]1CCSSC1 [Compound A]
[2]; 6 hours
  cleavage (peak amplitude of cleavage product A3): 30%
  reduction of the disulphide bond (A2): clearly visible
[2]; 24 hours
  cleavage (peak amplitude of cleavage product A3): 70%

## C[C@]12CC[C@@H]3c4ccc(OC(=O)N(CCCCCCO)C5CCSSC5)cc4CC[C@H]3[C@@H]1CC[C@@H]2OCCCOC(C(F)(F)F)(C(F)(F)F)C(F)(F)F (stereo partly drawn) [Compound 5]
[3]
  stability of the DMSO solution by HPLC-MS: stable and intact
[4]
  HPLC-MS products after incubation with reducing agent (intact compound, reduced Product 1, cleaved Fragment A, cleaved Fragment B): four distinct peaks
